In US20070196811A1, “Use Of Flavanol Derivatives For The Cryopreservation Of Living Cells” (priority 2004, published 2007):

System: spermatozoa
Assay: Post-thaw sperm motility after freezing in supplemented CryoProtec medium, analyzed by CASA
Format: cell-based
Settings: for Percentage of motile spermatozoa: thawed after 24 h in liquid nitrogen, mean±SD, 5 experiments; for velocity parameters, including linear velocity (VSL) and lateral head displacement (AHL): post-thaw, Cryoprotec medium supplemented with compound
Protocol: Aliquots of 50 μL of solutions of different 4-thioderivatives of flavan-3-ol of formula (I) hereof dissolved in PureSperm Wash medium (Nidacon International, Sweden), were added to 0.95 mL of the spermatozoa suspension (50 millions/mL) in CryoProtec freezing medium (Nidacon International, Sweden) in 1.8 mL Nunc vials in order to obtain final concentrations of 1, 10, 25, 50 and 100 μg/mL. Aliquots of 50 μL of solutions of (−)-epicatechin, a natural flavan-3-ol, were treated in the same way. As a control, 50 μL of PureSperm Wash medium (Nidacon International) were added instead of the solutions of the compounds of the invention (0 μg/mL). The percentage of motile cells in the different cellular suspensions was analyzed by CASA (Computer-Assisted Sperm Analysis) using an IVOS-IDENT (Hamilton-Thorn, Beverly, Mass.).
The cellular suspensions were processed for freezing using a standard freezing gradient as follows: cooling from room temperature to 4° C. in 30 min, from 4° C. to 0° C. in 3 min and immediately transferred to liquid nitrogen tanks. After 24 h in liquid nitrogen, the samples were thawed in a water bath at 37° C.
The percentage of motile spermatozoa in the different samples obtained above was analyzed by CASA. Since vials corresponding to the different compounds were in different boxes inside the nitrogen tanks, a control was used for each group of compounds.
Values are the mean±SD from a total of 5 experiments per concentration.

[1] = 1 μg/mL (approximate) compound in freezing medium
[2] = 10 μg/mL (approximate) compound in freezing medium
[3] = 25 μg/mL (approximate) compound in freezing medium
[4] = 50 μg/mL (approximate) compound in freezing medium
[5] = 100 μg/mL (approximate) compound in freezing medium

Compound | Percentage of motile spermatozoa [1] [%] | Percentage of motile spermatozoa [2] [%] | Percentage of motile spermatozoa [3] [%] | Percentage of motile spermatozoa [4] [%] | Percentage of motile spermatozoa [5] [%] | velocity parameters, including linear velocity (VSL) and lateral head displacement (AHL) | post-thaw motility recovery versus control ((−)-epicatechin versus control, all concentrations) | protection, evaluated in terms of sperm motility (concentrations ranging from 1 to 100 μg/mL) | storage stabilizing cryoprotective effect (summary statement)
COC(=O)[C@H](CS[C@H]1c2c(O)cc(O)cc2O[C@H](c2ccc(O)c(O)c2)[C@@H]1O)NC(C)=O [Example 4, 4β-[S—(N-acetyl-O-methyl-cysteinyl)]epicatechin] | 47.6 ± 3.7 | 49.8 ± 3.0 | 54.8 ± 5.2 | 59.4 ± 3.3 | 59.2 ± 2.8 | significantly higher |  |  | 
N[C@@H](CS[C@H]1c2c(O)cc(O)cc2O[C@H](c2ccc(O)c(O)c2)[C@@H]1O)C(=O)O [4β-(S-cysteinyl)epicatechin] | 47.6 ± 3.0 | 52.0 ± 2.3 | 61.8 ± 2.6 | 69.8 ± 3.2 | 70.2 ± 2.8 | significantly higher |  |  | 
Oc1cc(O)c2c(c1)O[C@H](c1ccc(O)c(O)c1)[C@H](O)C2 [(−)-epicatechin, reference compound] | 46.8 ± 1.9 | 47.0 ± 2.2 | 47.6 ± 3.2 | 47.4 ± 2.6 | 46.8 ± 1.3 |  | No significant differences | no significant protection | no significant storage stabilizing cryoprotective effect
